Assays:
[1] = test system: P. aeruginosa Strain No. 6431; assay: standard agar disc plate assay using 6.35 mm paper discs; assay type: cell-based, Pseudomonas aeruginosa; conditions: for Zones of Inhibition: strain 6431, 0.03 ml of 1 mg/ml per 6.35 mm disc; for zone of inhibition at 1000 µg/mL: Pseudomonas aeruginosa, read-out: Zones of Inhibition
[2] = test system: Pseudomonas mildenbergii (UC 3029); assay: agar disc plate assay, biounits; assay type: cell-based; conditions: vs. UC 3029; BU = concentration giving a 20 mm zone of inhibition
Procedure: The assay is an agar disc plate assay using the microorganism P. mildenbergii. The agar medium is buffered with 0.1 M phosphate buffer at a pH of 7.4. A unit volume (0.08 ml) of solution containing the substance to be assayed is placed on a 12.7 mm paper disc which is then placed on an agar plate seeded with the assay organism. The agar plate is then incubated for 16-18 hours at 37° C. A biounit (BU) is defined as the concentration of the antibiotic which gives a 20 mm zone of inhibition under the above assay conditions.

[3] = test system: P. aeruginosa Strain No. 6433; assay: standard agar disc plate assay using 6.35 mm paper discs; assay type: cell-based, Pseudomonas aeruginosa; conditions: for Zones of Inhibition: strain 6433, 0.03 ml of 1 mg/ml per 6.35 mm disc
[4] = test system: Pseudomonas aeruginosa strains obtained from Bronson Hospital; assay: antibacterial activity against hospital strains; assay type: cell-based; conditions: Kalamazoo
[5] = test system: P. aeruginosa Strain No. 6430; assay: standard agar disc plate assay using 6.35 mm paper discs; assay type: cell-based, Pseudomonas aeruginosa; conditions: for Zones of Inhibition: strain 6430, 0.03 ml of 1 mg/ml per 6.35 mm disc; for zone of inhibition at 1000 µg/mL: Pseudomonas aeruginosa, read-out: Zones of Inhibition
[6] = test system: P. aeruginosa Strain No. 6434; assay: as above; assay type: cell-based, Pseudomonas aeruginosa; conditions: for Zones of Inhibition: strain 6434, 0.03 ml of 1 mg/ml per 6.35 mm disc; for zone of inhibition at 1000 µg/mL: Pseudomonas aeruginosa, read-out: Zones of Inhibition
[7] = test system: P. aeruginosa Strain No. 6434; assay: nutrient broth dilution test; assay type: cell-based, Pseudomonas aeruginosa; conditions: strain 6434; 32° C., 18 hours
Procedure: (§1) Antibiotic 354 was also tested on a nutrient broth dilution test against the same Pseudomonas strains listed above. The test tubes were incubated at 32° C. for 18 hours.

[8] = test system: P. aeruginosa Strain No. 6429; assay: nutrient broth dilution test; assay type: cell-based, Pseudomonas aeruginosa; conditions: strain 6429; 32° C., 18 hours
Procedure: as §1

[9] = test system: P. aeruginosa Strain No. 6436; assay: nutrient broth dilution test; assay type: cell-based, Pseudomonas aeruginosa; conditions: strain 6436; 32° C., 18 hours
Procedure: as §1

[10] = test system: P. aeruginosa Strain No. 6430; assay: nutrient broth dilution test; assay type: cell-based, Pseudomonas aeruginosa; conditions: strain 6430; 32° C., 18 hours
Procedure: as §1

[11] = test system: P. aeruginosa Strain No. 6435; assay: nutrient broth dilution test; assay type: cell-based, Pseudomonas aeruginosa; conditions: strain 6435; 32° C., 18 hours
Procedure: as §1

[12] = test system: P. aeruginosa Strain No. 6431; assay: nutrient broth dilution test; assay type: cell-based, Pseudomonas aeruginosa; conditions: strain 6431; 32° C., 18 hours
Procedure: as §1

[13] = test system: P. aeruginosa Strain No. 6433; assay: nutrient broth dilution test; assay type: cell-based, Pseudomonas aeruginosa; conditions: strain 6433; 32° C., 18 hours
Procedure: as §1

[14] = test system: P. aeruginosa Strain No. 6436; assay: standard agar disc plate assay using 6.35 mm paper discs; assay type: cell-based, Pseudomonas aeruginosa; conditions: for Zones of Inhibition: strain 6436, 0.03 ml of 1 mg/ml per 6.35 mm disc; for zone of inhibition at 1000 µg/mL: Pseudomonas aeruginosa, read-out: Zones of Inhibition
species of Proteus = assay: antibacterial activity; assay type: cell-based
basicity = assay type: physicochemical
Bacillus subtillis = assay: standard disc plate assay (12.7 mm assay discs); assay type: cell-based; conditions: 1 mg/ml, 12.7 mm discs
[15] = test system: Serratia marcescens UC 131; assay: microplate broth dilution assay using nutrient broth; assay type: cell-based
Text: (§2) On testing antibiotic 354 by a microplate broth dilution assay using nutrient broth the following spectrum was observed.

[16] = test system: Klebsiella pneumoniae UC 58; assay: as above; assay type: cell-based
Text: as §2

[17] = test system: Klebsiella pneumoniae UC 57; assay: as above; assay type: cell-based
Text: as §2

[18] = test system: Salmonella schottmuelleri UC 126; assay: as above; assay type: cell-based
Text: as §2

[19] = test system: Streptococcus fecalis UC 694; assay: as above; assay type: cell-based
Text: as §2

Salmonella typhi = assay: as above; assay type: cell-based
Text: as §2

Proteus mirabilis = assay: as above; assay type: cell-based
Text: as §2

[20] = test system: Staphylococcus aureus UC 76; assay: as above; assay type: cell-based
Text: as §2

Pseudomonas mildenbergii = assay: standard disc plate assay (12.7 mm assay discs); assay type: cell-based; conditions: 1 mg/ml, 12.7 mm discs
[21] = test system: Pseudomonas aeruginosa GN-315 (UC 6149); assay: antibacterial activity; assay type: cell-based
[22] = test system: P. aeruginosa Strain No. 6435; assay: standard agar disc plate assay using 6.35 mm paper discs; assay type: cell-based, Pseudomonas aeruginosa; conditions: for Zones of Inhibition: strain 6435, 0.03 ml of 1 mg/ml per 6.35 mm disc; for zone of inhibition at 1000 µg/mL: Pseudomonas aeruginosa, read-out: Zones of Inhibition
species of Pseudomonas = assay: antibacterial activity; assay type: cell-based
[23] = test system: P. aeruginosa Strain No. 6429; assay: standard agar disc plate assay using 6.35 mm paper discs; assay type: cell-based, Pseudomonas aeruginosa; conditions: for Zones of Inhibition: strain 6429, 0.03 ml of 1 mg/ml per 6.35 mm disc; for zone of inhibition at 1000 µg/mL: Pseudomonas aeruginosa, read-out: Zones of Inhibition
Gram-negative bacteria = assay: antibacterial activity; assay type: cell-based

## N=C1C=C[C@@]2(O)C[C@H](Cl)CN12 [Antibiotic 354]
[1]
  Zones of Inhibition: 22 mm
[2]
  potency in biounits: 8 BU/mg
[3]
  Zones of Inhibition: 21 mm
[4]
  activity / resistance, Bronson Hospital P. aeruginosa strains: active
[5]
  Zones of Inhibition: 33 mm
[6]
  Zones of Inhibition: 20 mm
[7]
  Minimum Inhibitory Concentration: 12.5 µg/mL
[8]
  Minimum Inhibitory Concentration: 25 µg/mL
[9]
  Minimum Inhibitory Concentration: 25 µg/mL
[10]
  Minimum Inhibitory Concentration: 25 µg/mL
[11]
  Minimum Inhibitory Concentration: 12.5 µg/mL
[12]
  Minimum Inhibitory Concentration: 25 µg/mL
[13]
  Minimum Inhibitory Concentration: 25 µg/mL
[14]
  Zones of Inhibition: 22 mm
Species of Proteus
  activity against species of Proteus: very active
basicity
  basicity: strongly basic
Bacillus subtillis
  Zone Of Inhibition: 25 mm
[15]
  Minimum Inhibitory Concentration: 3.9 µg/mL
[16]
  Minimum Inhibitory Concentration: 7.8 µg/mL
[17]
  Minimum Inhibitory Concentration: 31.2 µg/mL
[18]
  Minimum Inhibitory Concentration: 7.8 µg/mL
[19]
  Minimum Inhibitory Concentration: 125 µg/mL
Salmonella typhi
  Minimum Inhibitory Concentration: 15.6 µg/mL
Proteus mirabilis
  Minimum Inhibitory Concentration: 31.2 µg/mL
[20]
  Minimum Inhibitory Concentration: 31.2 µg/mL
Pseudomonas mildenbergii
  Zone Of Inhibition: 30 mm
[21]
  activity / resistance, P. aeruginosa GN-315: active
[22]
  Zones of Inhibition: 24 mm
Species of Pseudomonas
  activity against species of Pseudomonas: very active
[23]
  Zones of Inhibition: 22 mm
Gram-negative bacteria
  activity against Gram-negative bacteria: active

## NC[C@H]1O[C@H](O[C@H]2[C@H](O)[C@@H](O[C@H]3O[C@H](CO)[C@@H](O)[C@H](N)[C@H]3O)[C@H](N)C[C@@H]2N)[C@H](O)[C@@H](O)[C@@H]1O [Kanamycin]
[1]
  zone of inhibition at 1000 µg/mL: 0 mm
[3]
  Zones of Inhibition: trace
[4]
  activity / resistance, Bronson Hospital P. aeruginosa strains: relatively resistant
[5]
  zone of inhibition at 1000 µg/mL: 11 mm
[6]
  zone of inhibition at 1000 µg/mL: 13 mm
[14]
  zone of inhibition at 1000 µg/mL: 0 mm
[21]
  activity / resistance, P. aeruginosa GN-315: resistant
[22]
  zone of inhibition at 1000 µg/mL: 0 mm
[23]
  zone of inhibition at 1000 µg/mL: 11 mm

## CCn1cc(C(=O)O)c(=O)c2ccc(C)nc21 [Nalidixic Acid]
[1]
  zone of inhibition at 1000 µg/mL: 12 mm
[3]; Pseudomonas aeruginosa, read-out: Zones of Inhibition
  zone of inhibition at 1000 µg/mL: 13 mm
[4]
  activity / resistance, Bronson Hospital P. aeruginosa strains: relatively resistant
[5]
  zone of inhibition at 1000 µg/mL: 13 mm
[6]
  zone of inhibition at 1000 µg/mL: 13 mm
[14]
  zone of inhibition at 1000 µg/mL: 13 mm
[21]
  activity / resistance, P. aeruginosa GN-315: resistant
[22]
  zone of inhibition at 1000 µg/mL: 17 mm
[23]
  zone of inhibition at 1000 µg/mL: 13 mm

## Gentamycin
[1]
  Zones of Inhibition: trace
[3]
  Zones of Inhibition: 11 mm
[4]
  activity / resistance, Bronson Hospital P. aeruginosa strains: relatively resistant
[5]
  Zones of Inhibition: 14 mm
[6]
  Zones of Inhibition: 22 mm
[14]
  Zones of Inhibition: 9 mm
[21]
  activity / resistance, P. aeruginosa GN-315: resistant
[22]
  Zones of Inhibition: 13 mm
[23]
  Zones of Inhibition: 14 mm

## Polymyxin B
[1]
  Zones of Inhibition: trace
[3]
  Zones of Inhibition: trace
[4]
  activity / resistance, Bronson Hospital P. aeruginosa strains: relatively resistant
[5]
  Zones of Inhibition: trace
[6]
  Zones of Inhibition: trace
[14]
  Zones of Inhibition: 9 mm
[22]
  Zones of Inhibition: trace
[23]
  Zones of Inhibition: trace
